Patent EP4729058A1, “AGENT FOR PROMOTING ENERGY CONSUMPTION” (Otsuka Pharmaceutical Factory, Inc., priority 2023, dated 2024)

Legend:
Format in all cases: in vivo, Mouse, C57BL/6J, male
[1] = Skeletal muscle weight at necropsy; conditions: 720 mg/10mL/kg oral twice a day for 12 weeks, ultra high fat diet, n=10, p<0.05 vs CON
From the text: (§1) Animals after arrival were fed ad libitum a solid diet of ultra high fat diet (D12492). After an acclimatization period, the animals were divided into groups according to the body weight. Then, the animals were individually housed and fed ad libitum the ultra high fat diet. The test substance was orally administered to all groups twice daily (once in the morning and once in the afternoon) (CON group: 0.5% CMC was orally administered; compound A administered group: compound A was orally administered). The day of the first administration was regarded as day 0 from the start of the test. Here, 5 animals from each group were regarded as the first-half animals, and the rest were regarded as the second-half animals, and feeding and administration for the second-half animals were started on day 2 from the start of the test of the first-half animals (day 0 from the start of the test of the second-half animals). In order for the animals to be acclimated to the environment inside an exhaled gas measurement chamber, the animals after oral administration in the morning (9:00) at days 7, 21, and 49 days from the start of the test were individually accommodated in the exhaled gas measurement chamber for 5.5 hours (10:00-15:30) with free access to water under fasting conditions. On days 28 and 65, after oral administration in the morning (11:00), all applicable animals were promptly accommodated individually in the exhaled gas measurement chamber, and acclimated for about 24 hours with free access to water and food. Oral administration was carried out in the afternoon of the same day (15:30) and in the morning of the next day (8:30), and the animals after administration were promptly accommodated in the exhaled gas measurement chamber again. After acclimation, the animals were returned to the cages for housing them. On day 82, all applicable animals were promptly accommodated in the exhaled gas measurement chamber (10:00) before oral administration in the morning. Oral administration was carried out in the morning (11:00) and afternoon (15:30) of the same day, and after oral administration in the morning (8:30) of the next day, exhaled gas was measured until necropsy. The animals were subjected to necropsy in the afternoon on day 83 (13:00). At the time of necropsy, laparotomy was performed under isoflurane anesthesia, and blood was collected from the caudal vena cava. After blood collection, the animals were euthanized by bleeding from the site of blood collection, and organs (fat, skeletal muscle) were collected. […]

[2] = Body weight measurement; conditions: for Body weight: ultra high fat diet, n=10
Experimental: Measurements were carried out at the time of arrival and every week from the day of grouping until the time of necropsy. Measurements were also carried out on the day of measuring the body composition and immediately before necropsy.
(§2) Animals after arrival were fed ad libitum a solid diet of ultra high fat diet (D12492). After an acclimatization period, the animals were divided into groups according to the body weight. Then, the animals were individually housed and fed ad libitum the ultra high fat diet. The test substance was orally administered to all groups twice daily (once in the morning and once in the afternoon) (CON group: 0.5% CMC was orally administered; compound A administered group: compound A was orally administered). The day of the first administration was regarded as day 0 from the start of the test. Here, 5 animals from each group were regarded as the first-half animals, and the rest were regarded as the second-half animals, and feeding and administration for the second-half animals were started on day 2 from the start of the test of the first-half animals (day 0 from the start of the test of the second-half animals). In order for the animals to be acclimated to the environment inside an exhaled gas measurement chamber, the animals after oral administration in the morning (9:00) at days 7, 21, and 49 days from the start of the test were individually accommodated in the exhaled gas measurement chamber for 5.5 hours (10:00-15:30) with free access to water under fasting conditions. On days 28 and 65, after oral administration in the morning (11:00), all applicable animals were promptly accommodated individually in the exhaled gas measurement chamber, and acclimated for about 24 hours with free access to water and food. Oral administration was carried out in the afternoon of the same day (15:30) and in the morning of the next day (8:30), and the animals after administration were promptly accommodated in the exhaled gas measurement chamber again. After acclimation, the animals were returned to the cages for housing them. On day 82, all applicable animals were promptly accommodated in the exhaled gas measurement chamber (10:00) before oral administration in the morning. Oral administration was carried out in the morning (11:00) and afternoon (15:30) of the same day, and after oral administration in the morning (8:30) of the next day, exhaled gas was measured until necropsy. The animals were subjected to necropsy in the afternoon on day 83 (13:00). At the time of necropsy, laparotomy was performed under isoflurane anesthesia, and blood was collected from the caudal vena cava. After blood collection, the animals were euthanized by bleeding from the site of blood collection, and organs (fat, skeletal muscle) were collected.

[3] = White fat tissue weight at necropsy; conditions: white fat weight per body weight at necropsy, 720 mg/10mL/kg oral twice a day for 12 weeks, ultra high fat diet, n=10
From the text: as §2
At the time of necropsy, fat around the left and right epididymides was taken out, and then the epididymides were discarded. […]

[4] = Total cholesterol in plasma at necropsy; conditions: 720 mg/10mL/kg oral twice a day for 12 weeks, ultra high fat diet, n=10, p < 0.01 vs CON
From the text: (§3) Animals after arrival were fed ad libitum a solid diet of ultra high fat diet (D12492). After an acclimatization period, the animals were divided into groups according to the body weight. Then, the animals were individually housed and fed ad libitum the ultra high fat diet. The test substance was orally administered to all groups twice daily (once in the morning and once in the afternoon) (CON group: 0.5% CMC was orally administered; compound A administered group: compound A was orally administered). The day of the first administration was regarded as day 0 from the start of the test. Here, 5 animals from each group were regarded as the first-half animals, and the rest were regarded as the second-half animals, and feeding and administration for the second-half animals were started on day 2 from the start of the test of the first-half animals (day 0 from the start of the test of the second-half animals). […] Oral administration was carried out in the morning (11:00) and afternoon (15:30) of the same day, and after oral administration in the morning (8:30) of the next day, exhaled gas was measured until necropsy. […]

[5] = Body composition (body composition analyzer, Echo MRI-700); conditions: 720 mg/10mL/kg oral twice a day, ultra high fat diet, n=10
Experimental: The body fat mass and the lean body mass were measured with a body composition analyzer (Echo MRI-700, Hitachi, Ltd.) at 6, 9, and 12 weeks of the test food intake, and divided by the body weight to calculate body fat percentage and lean body mass percentage.
as §2

[6] = Analysis of exhaled gas (energy metabolism measurement system for small animals); conditions: over 24 hours after morning administration on day 82, 720 mg/10mL/kg oral twice a day, ultra high fat diet, n=10
Experimental: A 32-channel energy metabolism measurement system for small animals (ARCO-2000-RAT, Arco System Inc.) was used to measure exhaled gas. Oxygen consumption (mL/min) and Carbon dioxide production (mL/min) of the animals were measured every 10 minutes at an air flow rate of 0.3 L/min. Measurements were carried out for about 24 hours after the completion of oral administration in the morning of the day before necropsy, and total oxygen consumption (mL/kg/day), energy consumption (kcal/kg/day), and lipid burning (mg/kg/day) over 24 hours were calculated using the following formulae: Calculation formulae: [formula] [formula] [formula] (VO2: oxygen consumption, VCO2: carbon dioxide production)
as §1, with “On day 82, all applicable animals were promptly accommodated in the exhaled gas measurement chamber (10:00) before oral administration in the morning.” left out, “necropsy.” for “necropsy. The animals were subjected to necropsy in the afternoon on day 83 (13:00). At the time of necropsy, laparotomy was performed under isoflurane anesthesia, and blood was collected from the caudal vena cava. After blood collection, the animals were euthanized by bleeding from the site of blood collection, and organs (fat, skeletal muscle) were collected.”

[7] = Rectal temperature before necropsy; conditions: before necropsy (day 83); 720 mg/10mL/kg oral twice a day for 12 weeks, ultra high fat diet; n=10; p < 0.01 vs CON
From the text: Before necropsy, a temperature controller for small animals (NS-TC10 Temperature Controller, Neuroscience, Inc.) equipped with a probe for measuring the rectal temperature was inserted into the rectum to measure the rectal temperature.
as §3

[8] = muscle weight per body weight at necropsy, left and right together
[9] = calculated from VO2 and VCO2, p < 0.01 vs CON

In the case of `O=C(O)CC(C(=O)O)N1C(=O)CC(O)(CC(=O)O)C1=O` (racemic) [Compound A], the Anterior tibialis muscle [1, 8] is reported as 3.53 g/Kg body weight, the “Extensor digitorum longus muscle” value [1, 8] is reported as 0.84 g/Kg body weight and the Plantaris muscle [1, 8] is reported as 1.31 g/Kg body weight. For the same compound, the “Muscles (Total weight of 3 types of muscle)” value ([1]; plantaris, anterior tibial and extensor digitorum longus muscle, per body weight at necropsy) was 5.68 g/Kg body weight, the Body weight ([2]; 1 week, 720 mg/10mL/kg oral twice a day) was 24.9 g and the Body weight ([2]; 2 weeks, 720 mg/10mL/kg oral twice a day) was 25.1 g. For the same compound, the Body weight ([2]; 3 weeks, 720 mg/10mL/kg oral twice a day) was 25.3 g, the Body weight ([2]; 4 weeks, 720 mg/10mL/kg oral twice a day) was 25.4 g and the Body weight ([2]; 5 weeks, 720 mg/10mL/kg oral twice a day) was 25.8 g. The Body weight ([2]; 6 weeks, 720 mg/10mL/kg oral twice a day) was 26.4 g, the Body weight ([2]; 7 weeks, 720 mg/10mL/kg oral twice a day, p=0.087 vs CON) was 26.8 g and the Body weight ([2]; 8 weeks, 720 mg/10mL/kg oral twice a day, p=0.082 vs CON) was 27.3 g. It also gave a Body weight ([2]; 9 weeks, 720 mg/10mL/kg oral twice a day, p=0.068 vs CON) of 27.8 g, a Body weight ([2]; 10 weeks, 720 mg/10mL/kg oral twice a day, p < 0.05 vs CON) of 27.2 g and a Body weight ([2]; 11 weeks, 720 mg/10mL/kg oral twice a day, p < 0.05 vs CON) of 28.3 g. For the same compound, the Body weight ([2]; 12 weeks, 720 mg/10mL/kg oral twice a day, p < 0.05 vs CON) was 28.9 g, the Body weight ([2]; Before administration (baseline)) was 25.1 g and the “body weight gain relative to the body weight gain of the CON group being 100%” value ([2]; after 12 weeks of administration, (3.8 / 7.2) × 100) was 52.8%. For the same compound, the “mean body weight gain” value ([2]; after 12 weeks of administration, CON group 7.2 g) was 3.8 g, the Epididymal fat ([3]; p < 0.01 vs CON) was 32.18 g/Kg body weight and the Perirenal fat ([3]; p < 0.01 vs CON) was 12.12 g/Kg body weight. It also gave an Interscapular fat ([3]; p<0.05 vs CON) of 1.88 g/Kg body weight, a Mesenteric fat ([3]; p<0.05 vs CON) of 10.10 g/Kg body weight and a Total cholesterol [4] of 149.4 mg/dL. The “Lean body mass percentage” value ([5]; 6 weeks, p=0.057 vs CON) was 79.6%, the Body fat percentage ([5]; 6 weeks, p=0.092 vs CON) was 15.6% and the Body fat percentage ([5]; 9 weeks, p < 0.05 vs CON) was 17.7%. For the same compound, the “Lean body mass percentage” value ([5]; 9 weeks, p < 0.05 vs CON) was 77.3%, the Body fat percentage ([5]; 12 weeks, p < 0.01 vs CON) was 19.0% and the “Lean body mass percentage” value ([5]; 12 weeks, p < 0.01 vs CON) was 74.7%. The “total carbon dioxide production” value [6] was 28.277 mL/min/kg, the total oxygen consumption ([6]; p < 0.01 vs CON) was 35.682 mL/min/kg and the total energy consumption [6, 9] was 243 kcal/kg/day. It also gave a total lipid burning [6, 9] of 17768 mg/kg/day and a Rectal temperature [7] of 35.7 °C.
